What was measured:
hPR-B = target: T1, hPR-B (Homo sapiens, UniProt P06401); experiment: TAT3-luciferase reporter, U2OS cells cotransfected with hPR-B; format: cell-based; details: 5 μM + 10 nM progesterone, 24 hours
T1 construct: expressed in transfected cells; host or cells: U2OS
T1 sequence (P06401 1-933): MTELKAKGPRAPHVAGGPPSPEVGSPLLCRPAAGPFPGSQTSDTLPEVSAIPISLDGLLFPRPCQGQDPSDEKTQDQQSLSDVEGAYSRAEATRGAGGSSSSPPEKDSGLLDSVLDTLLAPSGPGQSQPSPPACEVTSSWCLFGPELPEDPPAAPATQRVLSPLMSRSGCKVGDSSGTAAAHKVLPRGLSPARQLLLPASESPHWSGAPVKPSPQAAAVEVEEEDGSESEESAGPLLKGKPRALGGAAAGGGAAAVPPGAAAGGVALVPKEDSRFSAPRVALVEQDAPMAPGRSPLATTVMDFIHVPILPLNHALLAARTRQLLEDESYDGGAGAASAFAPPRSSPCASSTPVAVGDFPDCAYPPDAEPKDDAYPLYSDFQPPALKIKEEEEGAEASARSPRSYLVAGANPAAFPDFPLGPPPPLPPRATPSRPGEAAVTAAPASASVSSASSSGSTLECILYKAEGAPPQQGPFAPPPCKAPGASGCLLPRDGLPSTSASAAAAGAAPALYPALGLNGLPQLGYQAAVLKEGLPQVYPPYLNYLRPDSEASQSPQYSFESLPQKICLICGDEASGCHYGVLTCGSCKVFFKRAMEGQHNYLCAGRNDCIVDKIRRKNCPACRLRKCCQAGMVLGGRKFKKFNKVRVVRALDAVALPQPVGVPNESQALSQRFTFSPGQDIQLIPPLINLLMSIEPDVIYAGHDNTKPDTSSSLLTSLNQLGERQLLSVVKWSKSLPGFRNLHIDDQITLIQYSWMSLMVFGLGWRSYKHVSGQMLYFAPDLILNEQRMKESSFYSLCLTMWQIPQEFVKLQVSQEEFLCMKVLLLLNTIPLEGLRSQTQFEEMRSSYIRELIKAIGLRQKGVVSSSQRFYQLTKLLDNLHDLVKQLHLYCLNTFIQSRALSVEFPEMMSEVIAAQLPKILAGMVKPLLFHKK

[1] = target: T2, human glucocorticoid receptor (Homo sapiens, UniProt P04150); experiment: GRE-TK-Luc reporter, U2OS cells cotransfected with hGR; format: cell-based; details: 5 μM + 10 nM dexamethasone, 24 hours
T2 construct: expressed in transfected cells; host or cells: U2OS
T2 sequence (P04150 1-777): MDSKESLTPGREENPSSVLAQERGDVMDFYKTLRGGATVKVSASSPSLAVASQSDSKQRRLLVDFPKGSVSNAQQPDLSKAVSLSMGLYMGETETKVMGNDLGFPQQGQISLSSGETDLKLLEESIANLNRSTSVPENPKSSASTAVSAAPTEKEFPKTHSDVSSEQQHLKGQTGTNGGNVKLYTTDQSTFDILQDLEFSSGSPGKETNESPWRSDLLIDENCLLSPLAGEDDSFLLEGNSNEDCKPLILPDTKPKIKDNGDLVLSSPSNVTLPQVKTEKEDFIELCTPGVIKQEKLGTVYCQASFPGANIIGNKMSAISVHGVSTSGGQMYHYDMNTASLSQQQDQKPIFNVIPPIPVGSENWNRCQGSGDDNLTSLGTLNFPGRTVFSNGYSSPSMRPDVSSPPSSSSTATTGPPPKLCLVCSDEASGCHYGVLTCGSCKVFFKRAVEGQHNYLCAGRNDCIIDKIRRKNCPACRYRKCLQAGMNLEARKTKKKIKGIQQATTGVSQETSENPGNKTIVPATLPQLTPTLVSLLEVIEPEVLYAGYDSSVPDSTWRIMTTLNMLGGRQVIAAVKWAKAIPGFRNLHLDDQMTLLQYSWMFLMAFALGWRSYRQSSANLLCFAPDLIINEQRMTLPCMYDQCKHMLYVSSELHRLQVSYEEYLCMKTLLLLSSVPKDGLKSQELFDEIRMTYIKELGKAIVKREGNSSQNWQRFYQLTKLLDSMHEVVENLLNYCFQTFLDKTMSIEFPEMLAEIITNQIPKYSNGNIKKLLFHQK

ERα [2] = target: T3, ERα (Homo sapiens, UniProt P03372); experiment: ERE-tk luciferase transfection assay, U2OS cells cotransfected with ERα; format: cell-based; set-up: expressed in transfected cells; host or cells: U2OS
Procedure: (FIG. 1a) Chemical structure of 2′, 3′, 4′-THC. (FIG. 1b) U2OS cells cotransfected with ERE tk-luciferase and ERα (left panel) or ERβ (right panel). After transfection the cells were treated for 24 hours with 10 nM estradiol and 5 μM 2′, 3′, 4′-THC alone or in combination. Cells were lysed and luciferase activity was measured. RLU is relative light units. Error bars are the Mean±SEM. **P≤0.01. […] The total cellular RNA was extracted and real-time PCR for KRT19 mRNA was performed as described in Materials and Methods. […] Error bars are ±SEM. *P≤0.05, **** P≤0.0001.

c-MYC = c-MYC mRNA (real-time PCR) and protein (Western blot) in MCF-7 cells; details: greater than tamoxifen
ERα [3] = target: T3, ERα; experiment: Competitive [3H]-E2 binding in U2OS-ERα cells; set-up: expressed in transfected cells; host or cells: U2OS
MCF-7 cells = experiment: MCF-7 cell proliferation (cell counting); details: 5 days

T3 sequence (P03372 whole entry): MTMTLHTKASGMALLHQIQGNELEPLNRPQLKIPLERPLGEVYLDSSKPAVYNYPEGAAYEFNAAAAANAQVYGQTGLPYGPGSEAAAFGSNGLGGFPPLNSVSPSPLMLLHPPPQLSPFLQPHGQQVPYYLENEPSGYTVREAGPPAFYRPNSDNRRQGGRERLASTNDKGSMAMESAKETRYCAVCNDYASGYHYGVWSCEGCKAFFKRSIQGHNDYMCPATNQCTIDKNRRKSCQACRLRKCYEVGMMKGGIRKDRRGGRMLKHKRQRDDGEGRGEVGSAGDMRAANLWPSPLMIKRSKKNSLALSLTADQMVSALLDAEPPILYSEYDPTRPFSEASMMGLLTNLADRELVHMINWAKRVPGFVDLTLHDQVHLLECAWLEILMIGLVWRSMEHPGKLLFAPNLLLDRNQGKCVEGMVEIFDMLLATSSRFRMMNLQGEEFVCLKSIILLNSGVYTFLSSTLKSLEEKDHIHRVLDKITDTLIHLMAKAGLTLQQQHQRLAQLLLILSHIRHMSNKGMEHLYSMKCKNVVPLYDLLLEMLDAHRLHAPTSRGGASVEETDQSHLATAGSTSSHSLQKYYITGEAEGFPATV

SMILES: O=C(/C=C/c1ccccc1)c1ccc(O)c(O)c1O [2′, 3′, 4′-THC, 2′, 3′, 4′-trihydroxychalcone]
- synergy with receptor agonist (hPR-B): no synergy
- synergy with receptor agonist [1]: no synergy
- luciferase activity with E2 (ERα [2]; ERα, 5 μM chalcone + 10 nM E2, 24 hours): synergistic increase
- activity on ERE luciferase, compound alone (ERα [2]; U2OS cells transfected with ERα, 5 μM, 24 hours): inactive
- effect on E2-stimulation of c-MYC mRNA (c-MYC; 5 μM + 10 nM E2, 4 hours): inhibited
- effect on E2-stimulation of c-MYC protein levels (c-MYC; increasing doses + 10 nM E2, 1 hour): inhibited
- competing concentration relative to concentration required for synergy (ERα [3]): 100 fold
- increase of [3H]-E2 binding (ERα [3]; 5 or 10 μM, 5 nM [3H]-E2, 1 h, 37°C): ~2 fold
- IC50 relative to E2 (higher) (ERα [3]; U2OS-ERα cells): approximately 10,000 fold
- concentration at which the compound competes for [3H]-E2 binding (ERα [3]; no competition below, 5 nM [3H]-E2): 100 µM
- effect on proliferation induced by E2 (MCF-7 cells; 1, 5 and 10 μM, dose-dependent): blocked
- MCF-7 cell proliferation, compound alone (MCF-7 cells): no effect
